In PubChem BioAssay (NCI):
Several values for one entry are separate records, joined by “and”; a condition that tells them apart may be missing. Equal entries are not always repeated.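 A five-concentration, 48-hour dose response in 96-well plates underlies each endpoint, interpolated linearly between surrounding concentrations. GI50 marks 50% less growth. TGI is the concentration that stops growth completely.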

What was measured:
Test in all cases: NCI-60 cell line screen, 48 h
786-0 renal = test system: 786-0 renal
HL-60(TB) leukemia = test system: HL-60(TB) leukemia
MCF7 breast = test system: MCF7 breast
MDA-MB-435 = test system: MDA-MB-435
NCI/ADR-RES ovarian = test system: NCI/ADR-RES ovarian
PC-3 prostate = test system: PC-3 prostate
RPMI-8226 leukemia = test system: RPMI-8226 leukemia
SF-539 CNS = test system: SF-539 CNS
SK-MEL-2 melanoma = test system: SK-MEL-2 melanoma
SNB-75 CNS = test system: SNB-75 CNS

SMILES	TGI (786-0 renal)	TGI (HL-60(TB) leukemia)	TGI (MCF7 breast)	TGI (MDA-MB-435)	TGI (NCI/ADR-RES ovarian)	TGI (PC-3 prostate)	TGI (RPMI-8226 leukemia)	TGI (SF-539 CNS)	TGI (SK-MEL-2 melanoma)	TGI (SNB-75 CNS)	GI50 (786-0 renal)	GI50 (HL-60(TB) leukemia)	GI50 (MCF7 breast)	GI50 (MDA-MB-435)	GI50 (NCI/ADR-RES ovarian)	GI50 (PC-3 prostate)	GI50 (RPMI-8226 leukemia)	GI50 (SF-539 CNS)	GI50 (SK-MEL-2 melanoma)	GI50 (SNB-75 CNS)
C/C=C(\C)C(=O)OC1C2C(C)C(=O)OC2C(O)C(C)C2C=CC(=O)C21C (stereo unspecified)	30.3 µM	18.4 µM	21.6 µM	26.1 µM	49.9 µM	34.1 µM	32.1 µM	36.4 µM	34.4 µM	43.3 µM	–	–	–	–	–	–	–	–	–	–
CCCCC/C=C\C/C=C/CCCCCCCCNC(=O)Nc1ccc([N+](=O)[O-])cc1	> 100 µM	47.5 µM	> 100 µM	> 100 µM	> 100 µM	> 100 µM	39.5 µM	> 100 µM	> 100 µM	> 100 µM	29.5 µM	19.9 µM	23.7 µM	8.21 µM	7.8 µM	4.45 µM	4.54 µM	41.4 µM	32.3 µM	22.9 µM
CC#CC(=O)N[C@H]1CCCN(c2c(F)cc(C(N)=O)c3[nH]c(C)c(C)c23)C1	56.6 µM	46 µM	36 µM	34 µM	49.6 µM	62.2 µM	44.8 µM	28.4 µM	35.7 µM	21.3 µM	19 µM	21.4 µM	17.3 µM	16.6 µM	19.9 µM	21.5 µM	16.5 µM	13.3 µM	16.4 µM	7.66 µM
O=C(c1ccncc1)N1CCN(C2=NS(=O)(=O)c3ccccc3N2c2ccccc2)CC1	37.2 µM	> 100 µM	> 100 µM	40 µM	> 100 µM	> 100 µM	96.2 µM	22.8 µM	65.7 µM	53.2 µM	7.37 µM	17.1 µM	7.39 µM	18.9 µM	> 100 µM	22.2 µM	35.5 µM	3.85 µM	28 µM	15.5 µM
Cc1nc2sc(C(=O)Nc3cccc(Cl)c3C)c(N)c2cc1C(=O)c1ccccc1	> 50 µM	–	> 50 µM	0.257 µM	–	> 50 µM	> 15.9 µM	0.915 µM	> 50 µM	–	0.296 µM	0.147 µM	0.168 µM	0.0988 µM	0.192 µM	0.258 µM	0.249 µM	0.159 µM	0.329 µM	0.121 µM
COc1ccc(CCN2COc3ccc4ccc(=O)oc4c3C2)cc1OC	> 100 µM	41.7 µM	> 100 µM	> 100 µM	> 100 µM	> 100 µM	52.8 µM	> 100 µM	> 100 µM	> 100 µM	–	–	–	–	–	–	–	–	–	–
CCCC(=O)Nc1ncnc2c1ncn2C1OC2COP(=O)(O)OC2C1OC(=O)CCC (stereo unspecified)	> 1000 µM	> 1000 µM	> 1000 µM	> 1000 µM	> 1000 µM	> 1000 µM	> 1000 µM	> 1000 µM	> 1000 µM	> 1000 µM	> 1000 µM	–	> 1000 µM	> 1000 µM	> 1000 µM	> 1000 µM	–	–	> 1000 µM	> 1000 µM
C/C=C1\C[C@@H]2C(OC)Nc3cc(O)c(OC)cc3C(=O)N2C1 (stereo partly specified)	–	0.216 µM and 0.0852 µM	2.83 µM	0.0623 µM and < 0.0106 µM	0.0384 µM and < 0.0116 µM	0.404 µM and 0.478 µM	–	0.00892 µM and < 0.0283 µM	0.00713 µM and < 0.0159 µM	0.0205 µM and 0.0167 µM	0.00529 µM	0.00226 µM	0.00692 µM	0.00819 µM	–	0.0221 µM	0.00269 µM	0.00315 µM	0.00288 µM	0.00482 µM
CCNC(=O)c1ccc2c(c1)nc(-c1ccc(Cl)cc1)n2-c1cc(C(C)(C)C)[nH]n1	47.4 µM	7.6 µM	10.5 µM	5.35 µM	9.33 µM	48.8 µM	14.1 µM	11 µM	8.15 µM	12 µM	3.48 µM	2.72 µM	2.68 µM	1.09 µM	2.54 µM	2.87 µM	2.84 µM	3 µM	2.81 µM	2.17 µM
